A word on the IC50: it is the concentration that gives 50% inhibition.

IC50 data for 17 compounds are collected here from patent US20240150300A1, “S-CONFIGURATION-CONTAINING AMINO BENZAMIDE PYRIDAZINONE COMPOUND, PREPARATION METHOD THEREFOR, AND PHARMACEUTICAL COMPOSITION AND APPLICATION THEREOF” (SHANGHAI INSTITUTE OF MATERIA MEDICA, CHINESE ACADEMY OF …, priority 2021, published 2024).

Bounds are passed on as bounds.

For assay [1], the system named is SKM-1 cells. The experiment in a line: Antiproliferative activity, CCK-8, SKM-1. The format is cell-based, human. The protocol: (§1) The tumor cells used were purchased from commercial cell banks (HCT116 purchased from ATCC, SKM 1 purchased from JCRB). The growth inhibition of cells was detected using the CCK-8 method. The specific steps were as follows. Cells in the logarithmic growth phase were seeded into a 96 well culture plate at an appropriate density, with 90 μL/well. After overnight cultivation, different concentrations of drugs were added for treatment for 72 h, with each concentration in triplicate, and corresponding concentration of vehicle control and cell-free blank wells were also set. After the treatment, 10 μL of CCK-8 was added to each well and the plate was incubated in an incubator for 2-4 hours, and the optical density (OD value) at a wavelength of 450 nm was measured using a SpectraMax 190 microplate reader. […] The experiment was repeated twice, and the mean value and SD were calculated.
With reference to HCT-116 cell proliferation inhibition test method, the inhibitory activity of the compounds on the proliferation of human myelodysplastic syndrome cell SKM-1 was tested.

The target of assay [2] is HDAC1 (Homo sapiens (Human), UniProt Q13547). The assay is described as follows: In vitro histone deacetylase activity assay (HTRF), HDAC1. The following applies: H3(1-21) K9Ac biotin substrate. Type of assay: biochemical. On the procedure: (§2) Human recombinant HDAC family proteins with His and GST tags were expressed using insect baculovirus expression system, and a biologically active HDAC family recombinant protein was obtained through Ni affinity column protein purification. HTRF detection method was used with H3(1-21) K9Ac biotin as the substrate. […] Briefly, 20 μl of the activity testing system included the HDAC substrate (0.2 μM. 4 μl), the Human Recombinant Protein HDAC (2-5 ng)/μl.
Chain of HDAC1 (Q13547 whole entry): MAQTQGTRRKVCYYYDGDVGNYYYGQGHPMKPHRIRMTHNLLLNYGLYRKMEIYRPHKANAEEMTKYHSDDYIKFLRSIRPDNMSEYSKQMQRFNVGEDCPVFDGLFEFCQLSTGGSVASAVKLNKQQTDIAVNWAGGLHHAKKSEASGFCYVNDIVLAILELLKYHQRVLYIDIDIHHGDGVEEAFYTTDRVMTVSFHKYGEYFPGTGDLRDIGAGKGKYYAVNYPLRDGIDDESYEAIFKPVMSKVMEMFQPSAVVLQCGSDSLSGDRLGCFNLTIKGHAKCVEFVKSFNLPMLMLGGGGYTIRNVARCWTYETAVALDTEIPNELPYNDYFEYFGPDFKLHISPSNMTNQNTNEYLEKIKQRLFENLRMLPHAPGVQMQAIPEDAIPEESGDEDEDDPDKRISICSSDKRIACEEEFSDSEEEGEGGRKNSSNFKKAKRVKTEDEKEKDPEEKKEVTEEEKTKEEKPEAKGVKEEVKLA
(In TR-FRET formats the signal depends on donor and acceptor labels being close together.)

Assay [3] deals with HCT-116 cells. The experiment in a line: Antiproliferative activity, CCK-8, HCT-116. Type of assay: cell-based, human. The protocol: as §1
The target of assay [4] is HDAC6 (Homo sapiens (Human), UniProt Q9UBN7). The experiment in a line: In vitro histone deacetylase activity assay (HTRF), HDAC6. The format is biochemical. The following applies: H3(1-21) K9Ac biotin substrate. The protocol:
as §2

The target in assay [5] is HDAC10 (Homo sapiens (Human), UniProt Q969S8). The experiment in a line: HDAC subtype inhibitory activity (HTRF), HDAC10. Type of assay: biochemical. On the procedure: as §2
Chain of HDAC10 (Q969S8 whole entry): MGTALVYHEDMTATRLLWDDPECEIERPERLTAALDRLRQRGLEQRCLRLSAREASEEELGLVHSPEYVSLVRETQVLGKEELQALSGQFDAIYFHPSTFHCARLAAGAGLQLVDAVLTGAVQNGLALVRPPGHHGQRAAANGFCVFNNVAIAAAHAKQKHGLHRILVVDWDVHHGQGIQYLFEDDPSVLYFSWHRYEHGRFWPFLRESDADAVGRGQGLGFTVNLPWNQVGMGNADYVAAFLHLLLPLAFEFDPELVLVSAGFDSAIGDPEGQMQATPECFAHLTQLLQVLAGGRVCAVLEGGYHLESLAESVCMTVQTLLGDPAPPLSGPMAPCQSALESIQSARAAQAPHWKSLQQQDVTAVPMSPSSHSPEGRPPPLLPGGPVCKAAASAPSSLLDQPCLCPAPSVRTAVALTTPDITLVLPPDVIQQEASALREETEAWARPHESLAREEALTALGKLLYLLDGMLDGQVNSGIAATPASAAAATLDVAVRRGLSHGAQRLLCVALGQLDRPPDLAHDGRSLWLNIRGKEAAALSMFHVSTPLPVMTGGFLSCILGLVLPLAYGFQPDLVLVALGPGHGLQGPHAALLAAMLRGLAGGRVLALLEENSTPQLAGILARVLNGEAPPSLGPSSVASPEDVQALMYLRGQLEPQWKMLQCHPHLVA
Assay [6] deals with HDAC2 (Homo sapiens (Human), UniProt Q92769). The assay is described as follows: HDAC subtype inhibitory activity (HTRF), HDAC2. The format is biochemical. The protocol:
as §2

Assay [7] addresses HDAC8 (Homo sapiens (Human), UniProt Q9BY41). The assay is described as follows: HDAC subtype inhibitory activity (HTRF), HDAC8. The format is biochemical. The protocol: as §2
Assay [8] has as its target HDAC3 (Homo sapiens (Human), UniProt O15379). The experiment in a line: HDAC subtype inhibitory activity (HTRF), HDAC3. Type of assay: biochemical. On the procedure: as §2

Chain of HDAC6 (Q9UBN7 whole entry): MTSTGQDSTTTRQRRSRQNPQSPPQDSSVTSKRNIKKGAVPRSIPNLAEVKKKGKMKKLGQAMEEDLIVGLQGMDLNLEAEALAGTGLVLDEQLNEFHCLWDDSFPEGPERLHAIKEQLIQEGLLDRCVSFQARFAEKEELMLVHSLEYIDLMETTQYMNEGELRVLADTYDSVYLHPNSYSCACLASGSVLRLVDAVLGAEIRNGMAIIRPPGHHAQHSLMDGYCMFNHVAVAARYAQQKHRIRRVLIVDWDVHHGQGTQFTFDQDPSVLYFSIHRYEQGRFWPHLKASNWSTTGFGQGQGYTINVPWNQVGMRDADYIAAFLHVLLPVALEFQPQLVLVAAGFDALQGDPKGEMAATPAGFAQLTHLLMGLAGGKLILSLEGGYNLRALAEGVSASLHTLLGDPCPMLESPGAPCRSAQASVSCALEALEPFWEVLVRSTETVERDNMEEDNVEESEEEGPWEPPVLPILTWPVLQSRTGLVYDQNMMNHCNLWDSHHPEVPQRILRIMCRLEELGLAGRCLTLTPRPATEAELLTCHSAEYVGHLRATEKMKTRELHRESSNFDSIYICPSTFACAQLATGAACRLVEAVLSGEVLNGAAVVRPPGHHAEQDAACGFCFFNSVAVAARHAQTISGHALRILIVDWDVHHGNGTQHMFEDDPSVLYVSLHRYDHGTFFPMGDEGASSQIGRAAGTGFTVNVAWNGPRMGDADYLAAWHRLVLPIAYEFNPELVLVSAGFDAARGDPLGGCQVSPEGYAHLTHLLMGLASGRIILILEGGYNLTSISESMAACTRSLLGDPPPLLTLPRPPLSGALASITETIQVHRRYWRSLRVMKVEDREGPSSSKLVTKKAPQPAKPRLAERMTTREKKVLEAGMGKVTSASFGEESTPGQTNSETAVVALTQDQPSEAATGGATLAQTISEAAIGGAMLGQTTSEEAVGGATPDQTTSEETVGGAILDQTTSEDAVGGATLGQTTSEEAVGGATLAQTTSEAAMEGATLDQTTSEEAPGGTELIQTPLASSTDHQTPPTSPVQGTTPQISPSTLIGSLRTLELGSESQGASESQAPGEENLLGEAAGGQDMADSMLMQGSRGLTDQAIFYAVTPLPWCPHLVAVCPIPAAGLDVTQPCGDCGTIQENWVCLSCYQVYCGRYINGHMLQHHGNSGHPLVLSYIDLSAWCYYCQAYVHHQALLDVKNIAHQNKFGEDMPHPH
Chain of HDAC2 (Q92769 whole entry): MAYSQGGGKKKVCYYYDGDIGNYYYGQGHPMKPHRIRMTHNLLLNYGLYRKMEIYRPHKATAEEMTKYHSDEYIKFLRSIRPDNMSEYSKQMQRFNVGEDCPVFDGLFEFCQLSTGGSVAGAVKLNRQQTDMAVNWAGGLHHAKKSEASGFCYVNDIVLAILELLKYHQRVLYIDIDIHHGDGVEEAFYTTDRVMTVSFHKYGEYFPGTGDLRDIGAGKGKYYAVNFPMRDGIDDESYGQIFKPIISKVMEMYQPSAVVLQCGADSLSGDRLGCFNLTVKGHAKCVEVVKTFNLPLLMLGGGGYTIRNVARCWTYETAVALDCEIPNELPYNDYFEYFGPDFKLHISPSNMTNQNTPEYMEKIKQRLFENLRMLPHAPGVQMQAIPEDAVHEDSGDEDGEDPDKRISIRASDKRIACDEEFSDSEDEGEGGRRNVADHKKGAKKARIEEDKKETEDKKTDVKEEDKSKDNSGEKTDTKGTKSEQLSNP
Chain of HDAC3 (O15379 whole entry): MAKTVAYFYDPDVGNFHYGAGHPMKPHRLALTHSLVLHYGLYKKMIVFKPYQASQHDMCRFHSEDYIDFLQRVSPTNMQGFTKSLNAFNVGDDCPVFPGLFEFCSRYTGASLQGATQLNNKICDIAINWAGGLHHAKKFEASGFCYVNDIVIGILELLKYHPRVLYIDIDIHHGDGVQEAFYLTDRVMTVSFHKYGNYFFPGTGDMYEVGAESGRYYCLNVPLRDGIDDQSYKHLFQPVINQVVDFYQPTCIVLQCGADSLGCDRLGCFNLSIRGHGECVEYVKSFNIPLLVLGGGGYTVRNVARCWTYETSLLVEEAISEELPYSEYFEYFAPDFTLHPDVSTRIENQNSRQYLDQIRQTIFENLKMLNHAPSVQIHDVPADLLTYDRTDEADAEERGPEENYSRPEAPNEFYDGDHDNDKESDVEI
Chain of HDAC3 (Q9Y618 395-489 partner): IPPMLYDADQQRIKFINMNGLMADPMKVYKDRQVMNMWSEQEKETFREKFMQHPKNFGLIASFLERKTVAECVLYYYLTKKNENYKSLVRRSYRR
Chain of HDAC8 (Q9BY41 whole entry): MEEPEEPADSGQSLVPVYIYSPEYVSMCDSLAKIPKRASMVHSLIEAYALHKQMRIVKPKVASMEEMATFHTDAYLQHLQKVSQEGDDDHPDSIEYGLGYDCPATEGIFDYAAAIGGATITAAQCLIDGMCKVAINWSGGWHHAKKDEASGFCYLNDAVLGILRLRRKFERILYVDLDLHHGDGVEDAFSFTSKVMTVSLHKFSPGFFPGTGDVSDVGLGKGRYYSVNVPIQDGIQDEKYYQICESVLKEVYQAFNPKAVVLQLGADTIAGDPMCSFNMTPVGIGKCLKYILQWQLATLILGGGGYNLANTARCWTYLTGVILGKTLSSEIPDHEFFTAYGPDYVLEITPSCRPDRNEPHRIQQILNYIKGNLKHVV

With `Cc1ccc(N)c(NC(=O)c2ccc([C@H](C)n3nc(-c4ccc(CN(C)C)cc4)ccc3=O)cc2)c1` [Compound I-13], the IC50 in assay [1] (72 h) was 170 ± 2 nM; in assay [2], 44.8 ± 1.53 nM; in assay [3] (72 h) it was 220 ± 24 nM; in assay [4], greater than 10000 nM.

On to `COc1cccc(-c2ccc(=O)n([C@@H](C)c3ccc(C(=O)Nc4ccccc4N)cc3)n2)c1` [Compound I-4], for which the IC50 in assay [1] (Homo sapiens, SKM-1, 72 h) was 160 ± 1 nM; in assay [2], 35.2 ± 4.47 nM; in assay [3] (Homo sapiens, HCT-116, 72 h), 230 ± 4 nM; in assay [4] it was greater than 10000 nM.

`C[C@H](c1ccc(C(=O)Nc2ccc(F)cc2N)cc1)n1nc(-c2ccc(CN(C)C)cc2)ccc1=O` [I-1 (R configuration), reference compound]: the half-inhibitory concentration (IC50) in assay [1] (72 h) was 1060 ± 79 nM; in assay [5], greater than 100000 nM; in assay [6], 320 ± 48 nM; in assay [2], 375 ± 42.1 nM; in assay [3] (72 h), 1550 ± 94 nM; in assay [7], greater than 100000 nM. The values for the IC50 in assay [8] and in assay [4] were 720 ± 196 nM and greater than 10000 nM, respectively.

Take `C[C@@H](c1ccc(C(=O)Nc2ccccc2N)cc1)n1nc(-c2cccc(Cl)c2)ccc1=O` [Compound I-3]: the 50% inhibitory concentration (IC50) in assay [1] (Homo sapiens, SKM-1, 72 h) is 270 ± 13 nM; in assay [2] it was 52.4 ± 10.2 nM; in assay [3] (Homo sapiens, HCT-116, 72 h), 390 ± 6 nM; in assay [4] it was greater than 10000 nM.

For the compound `Nc1cc(F)ccc1NC(=O)c1ccc(CNC(=O)/C=C/c2cccnc2)cc1` [Chidamide, reference compound], the half-inhibitory concentration (IC50) in assay [1] (Homo sapiens, SKM-1, 72 h) is 550 ± 4 nM; in assay [3] (Homo sapiens, HCT-116, 72 h), 1700 ± 105 nM.

With `COc1ccc(N)c(NC(=O)c2ccc([C@H](C)n3nc(-c4ccc(CN(C)C)cc4)ccc3=O)cc2)c1` [Compound I-11], the half-inhibitory concentration (IC50) in assay [1] (72 h) is 270 ± 19 nM; in assay [2], 42.4 ± 0.8 nM; in assay [3] (72 h), 310 ± 37 nM; in assay [4], greater than 10000 nM.

For `C[C@@H](c1ccc(C(=O)Nc2cc(F)c(F)cc2N)cc1)n1nc(-c2ccc(CN(C)C)cc2)ccc1=O` [Compound I-7], the IC50 in assay [1] (Homo sapiens, SKM-1, 72 h) was 210 ± 5 nM; in assay [2] it was 99.5 ± 11.1 nM; in assay [3] (Homo sapiens, HCT-116, 72 h), 310 ± 18 nM; in assay [4], greater than 10000 nM.

For the compound `C[C@@H](c1ccc(C(=O)Nc2ccccc2N)cc1)n1nc(-c2ccncc2)ccc1=O` [Compound I-6], the concentration for half-maximal inhibition (IC50) in assay [1] (Homo sapiens, SKM-1, 72 h) was 240 ± 11 nM; in assay [2], 60.5 ± 5.73 nM; in assay [3] (Homo sapiens, HCT-116, 72 h) it was 330 ± 4 nM; in assay [4], greater than 10000 nM.

In the case of `CC(c1ccc(C(=O)Nc2ccc(F)cc2N)cc1)n1nc(-c2ccc(CN(C)C)cc2)ccc1=O` (racemic) [HYH-073 (racemate of I-1), reference compound], the IC50 in assay [1] (Homo sapiens, SKM-1, 72 h) worked out at 230 ± 10 nM; in assay [3] (Homo sapiens, HCT-116, 72 h), 380 ± 1 nM.

Turning to `C[C@@H](c1ccc(C(=O)Nc2cccc(F)c2N)cc1)n1nc(-c2ccc(CN(C)C)cc2)ccc1=O` [Compound I-9], the half-inhibitory concentration (IC50) was 340 ± 13 nM in assay [1] (Homo sapiens, SKM-1, 72 h); 122 ± 11.1 nM in assay [2]; 500 ± 65 nM in assay [3] (Homo sapiens, HCT-116, 72 h); greater than 10000 nM in assay [4].

As to `C[C@@H](c1ccc(C(=O)Nc2ccccc2N)cc1)n1nc(-c2ccc(CN(C)C)cc2)ccc1=O` [Compound I-2], the IC50 in assay [1] (Homo sapiens, SKM-1, 72 h) is 60 ± 1 nM; in assay [5], greater than 100000 nM; in assay [6], 90 ± 2 nM; in assay [2], 23.3 ± 1.1 nM; in assay [3] (Homo sapiens, HCT-116, 72 h) it was 80 ± 2 nM; in assay [7] it was greater than 100000 nM. In addition, the IC50 is 390 ± 28 nM in assay [8] and greater than 10000 nM in assay [4].

Regarding `C[C@@H](c1ccc(C(=O)Nc2ccccc2N)cc1)n1nc(-c2cnn(C)c2)ccc1=O` [Compound I-5], the IC50 is 200 ± 1 nM in assay [1] (Homo sapiens, SKM-1, 72 h); 124 ± 24.4 nM in assay [2]; 280 ± 8 nM in assay [3] (Homo sapiens, HCT-116, 72 h); greater than 10000 nM in assay [4].

Turning to `C[C@@H](c1ccc(C(=O)Nc2cc(F)ccc2N)cc1)n1nc(-c2ccc(CN(C)C)cc2)ccc1=O` [Compound I-12], the IC50 was 100 nM in assay [1] (Homo sapiens, SKM-1, 72 h); 31.3 ± 3.27 nM in assay [2]; 140 ± 4 nM in assay [3] (Homo sapiens, HCT-116, 72 h); greater than 10000 nM in assay [4].

As for `Nc1ccccc1NC(=O)c1ccc(CNC(=O)OCc2cccnc2)cc1` [MS-275, Entinostat, reference compound], the IC50 in assay [1] (Homo sapiens, SKM-1, 72 h) worked out at 390 nM; in assay [3] (Homo sapiens, HCT-116, 72 h), 1480 ± 8 nM.

With `C[C@@H](c1ccc(C(=O)Nc2ccccc2N)cc1)n1nc(-c2ccccc2)ccc1=O` [Compound I-10], the IC50 in assay [2] is 50.5 ± 13.7 nM; in assay [3] (Homo sapiens, HCT-116, 72 h) it was 400 ± 72 nM; in assay [4] it was greater than 10000 nM.

`CC(c1ccc(C(=O)Nc2ccccc2N)cc1)n1nc(-c2ccc(CN(C)C)cc2)ccc1=O` (racemic) [HYH-072 (racemate of I-2), reference compound]: the IC50 came out at 90 ± 4 nM in assay [1] (Homo sapiens, SKM-1, 72 h) and 110 ± 7 nM in assay [3] (Homo sapiens, HCT-116, 72 h).

As for `COc1ccc(NC(=O)c2ccc([C@H](C)n3nc(-c4ccc(CN(C)C)cc4)ccc3=O)cc2)c(N)c1` [Compound I-8], the 50% inhibitory concentration (IC50) in assay [1] (Homo sapiens, SKM-1, 72 h) was 490 ± 16 nM; in assay [2], 126 ± 18.3 nM; in assay [3] (Homo sapiens, HCT-116, 72 h), 870 ± 37 nM; in assay [4] it was greater than 10000 nM.
